No end group written: not given here.
How the values were obtained:
bacteria = conditions: cited from earlier work
RecA [1] = conditions: real-time RT-PCR, mRNA normalized to 16s
Procedure: (F) Quantification of RecA mRNA in MRSA by real-time RT-PCR.
Analysis of gene expression by real-time RT-PCR. mRNA from RecA and
LexA was measured by real-time PCR (RT-PCR). XPX-1 cells harvested 3 h after
induction and the total RNA was extracted with the TRIzol® Reagent (Thermo
Fisher Scientific, Waltham, MA, USA) according to the manufacturer’s instruction.
Reversed transcription was performed with the ReverTra Ace qPCR RT Kit
(TOYOBO, Osaka, Japan). The primer sequence of RecA and LexA was as follows:
RecA (forward 5’-[sequence]-3’, reverse
5’-[sequence]-3’); LexA (forward
5’-[sequence]-3 ’ , reverse 5 ’
-[sequence]-3’ ). The relative expression level of RecA and
LexA was normalized to 16s by using the 2- CT method(11).

MRSA = experiment: bacterial clearance in lung lavage fluid of rats with MRSA-induced pneumonia; type: in vivo, rat; conditions: HNP-1 0.1 ml of 20 μg/ml (2 μg); penicillin 12 μg/ml; intratracheal spray once daily for 3 days
Procedure: (B) Comparison of the bacterial counts in the different treatment groups. The number of MRSA isolated from lung lavage fluid were counted on the agar-containing culture plates followed by culturing for 36 h at 37°C. […] Data were analyzed using a two-tailed Student's t test and are plotted as the mean ± SD for each condition. n = 3; *, P < 0.05; and **, P < 0.01.
(§1) MRSA and MRPA were isolated from the Affiliated Hospital of Xuzhou Medical University (Jiangsu, China) and obtained from Professor Shengqi Wang (Xuzhou Medical University, Jiangsu, China). Bacterial pneumonia rats were prepared by spraying MRSA suspensions into the lungs via the trachea with a long soft plastic tube, as described in our previous research ([30]). The rats were inoculated using tracheal intubation with 0.2 ml of 10^8 CFU/ml MRSA suspensions. After 8 h, the rats were given medication. […] All of the medicines were sprayed into the rat lungs through the trachea using an intratracheal MicroSprayer Aerosolizer (IA-1B; PennCentury Inc., Wyndmoor, PA, USA) once daily for 3 days without anesthesia.
Preparation of pneumonic model rats and medicine administration.
(§2) clinically isolated bacterial strain MRSA was cultivated in LB medium at 37 °C with
(§3) continuous shaking (200 rpm) overnight. Then, the concentration of MRSA was
(§4) determined by the optical density (OD) at 600 nm based on the turbidity of the cell
suspension. […]

RecA [2] = experiment: RecA mRNA by real-time RT-PCR in MRPA; type: cell-based; conditions: mRNA normalized to 16s
H&E lung pathology = type: in vivo, rat; conditions: MRSA-induced pneumonic rats
Procedure: (C) Pathological evaluation via H&E staining in pneumonic model rats. […] Data were analyzed using a two-tailed Student's t test and are plotted as the mean ± SD for each condition. n = 3; *, P < 0.05; and **, P < 0.01.
as §1
Preparation of pneumonic model rats and medicine administration. The
as §2, §3, §4
suspension. Subsequently, the bacterial suspension was diluted with LB medium, and
a final density of 10^8 CFU/mL was obtained for animal testing. Male […]

E. coli strain XPX-1 = experiment: growth and viable count of E. coli XPX-1 after IPTG-induced expression; type: cell-based; conditions: XPX-1, 1 mM IPTG, Luria-Bertani medium, 37°C
Procedure: XPX-1 cells were grown to an approximate optical density (OD600) of 0.4 in 20 ml of Luria−Bertani medium containing kanamycin (50 μg/ml) at 37°C, and then IPTG was added at a final concentration of 1 mM to induce the expression of preproHNP-1.
(B) Growth curves of E. coli strain XPX-1 containing pET-28a(+)-preproHNP-1 with (+IPTG) or without (−IPTG) 1 mM IPTG induction. […] Data were analyzed using a two-tailed Student's t test and plotted as the mean ± SD for each condition. **, P < 0.01.
The induction time points of IPTG are labeled as indicated. […] The induction time points of IPTG are labeled as indicated. (D) Bacterial colony count after IPTG induction. The induction time points are labeled as indicated. The number of viable cells were counted after growing for 16 h on plates containing Luria-Bertani broth media. […] The growth curve of E. coli strain XPX-1 with 1 mM IPTG induction as a positive control and XPX-1 without IPTG induction as a negative control. […] Data were analyzed using a two-tailed Student's t test and are plotted as the mean ± SD for each condition. *, P < 0.05 and **, P < 0.01.
E. coli strains and plasmids.
After verifying the sequence, the vectors were transformed into E. coli BL21 (DE3) competent cells to obtain XPX-1, which was used to express the recombinant protein preproHNP-1. […]

RecA [3] = test system: RecA
Procedure: The inclusion bodies were solubilized in denaturing solution (20 mM Tris, 8 M urea, 20 mM DTT, pH 8.5) at a ratio of 1:20 (grams of inclusion body wet weight: mL of volume) and the suspension was shaken gently for 4 h at room temperature.
After centrifugation at 12,000 ×g for 15 min, the supernatant was diluted directly into refolding buffer (20 mM Tris,1 mM cystine, 3 mM cysteine, 2 M urea, pH 10.0).
After refolding at 4°C overnight, the sample pH was adjusted to 4.5 and the sample was centrifuged at 4,000 ×g for 20 min.
The solubilized protein samples were loaded onto a pre-equilibrated HiTrap Chelating HP (5 mL, GE Healthcare, Chicago, IL, USA) ata flow rate of 10 mL/min inbuffer A (20 mM Tris, 2 M NaCl, pH 7.5). […] The purified preproHNP-1 was quantified with BCA according to standard procedures. […]
imidazole) and analyzed by a 12% Tris-Tricine gel followed by Coomassie brilliant blue G-250 staining. […]
Proteomics analysis. […] After in-gel digestion by trypsin, the samples were analyzed by LC-MS/MS using a homemade column (75 μm internal diameter ×15 cm long) packed with 3 μm C18 reverse phase beads (Michrom Bioresources, Inc., Auburn, CA, USA), a 60 min gradient was performed on an LTQ-Orbitrap Velos mass spectrometer (Thermo Fisher Scientific, San Jose, CA, USA). […]

E. coli = experiment: growth curve of E. coli treated with purified recombinant peptides; type: cell-based; conditions: 20 μg/ml; compared with regular growth medium without IPTG induction
Procedure: Data were analyzed using a two-tailed Student's t test and are plotted as the mean ± SD for each condition. *, P < 0.05 and **, P < 0.01.
PreproHNP-1 was purified from E. coli under denaturing conditions ([48]), as described in the Supplementary Materials and Methods. […] The mixture was disrupted using a Soniprep Sonicator (Scientz, Ningbo, China) at the power of 25% for 25 cycles. The resultant TCL was centrifuged at 10,000 g for 25 min. The supernatant was loaded into an Amicon Ultra-0.5 ml centrifugal concentration unit (3 kDa MWCO, Millipore, Burlington, MA, USA) and centrifuged at 5,000 g for 10 min to recover the filtered solution. This step was repeated three times. All filtered solutions were pooled for quality checks and then diluted to a concentration of 20 μg/ml before use in antimicrobial activity assays.
E. coli strains and plasmids. E. coli strain BL21 (DE3), E. coli strain DH5α and vector pET-28a(+) were stored at−80 °C in our laboratory. The DNA sequence of preproHNP-1 and flanked with EcoR I and Xho I was generated from synthetic oligonucleotides according to a reference sequence (NM_004084.3). The products were ligated into the pET-28a(+) vector encoding a fragment with six histidine (His6)
The resulting vectors were transformed into the E. coli DH5α cells and after isolation and purification, they were subjected to the DNA sequence analysis. […]

## HNP-2: antimicrobial peptide cited for filamentation (CYCRIPACIAGERRYGTCIYQGRLWAFCC; ends and bridges not checked; cysteine pairing not given here; UniProt P59665 66-94, looked up)
bacteria
  AMP-induced filamentation: filamentation has also been described

## PR-39
bacteria
  AMP-induced filamentation: filamentation has also been described

## penicillin
RecA [1]
  RecA expression in MRSA: increased significantly
MRSA
  bacterial clearance effect: neither HNP-1 nor penicillin treatment had any effect
RecA [2]
  RecA expression in MRPA: increased significantly
H&E lung pathology
  exudation, inflammation, hemorrhage (H&E): alleviated these symptoms to a certain degree

## indolicidin (ILPWKWPWWPWRR; ends and bridges not checked; UniProt P33046 131-143, looked up) [antimicrobial peptide cited for filamentation]
bacteria
  AMP-induced filamentation: filamentation has also been described

B1: HNP-5: antimicrobial peptide cited for filamentation (peptide, UniProt Q01523 20-94, looked up)
Defensin alpha 5: ESLQERADEATTQKQSGEDNQDLAISFAGNGLSALRTSGSQARATCYCRTGRCATRESLSGVCEISGRLYRLCCR
modifications: Defensin-5
notes: antimicrobial peptide cited for filamentation
bacteria
  AMP-induced filamentation: filamentation has also been described

B2: preproHNP-1: full-length precursor of HNP-1 tagged with six histidine residues, cloned into pET-28a(+), expressed in E. coli XPX-1 (protein, UniProt P59665 1-94, looked up)
chain: MRTLAILAAILLVALQAQAEPLQARADEVAAAPEQIAADIPEVVVSLAWDESLAPKHPGSRKNMACYCRIPACIAGERRYGTCIYQGRLWAFCC
modifications: full-length His6 tag
E. coli strain XPX-1
  OD600 reached after induction: ~1
RecA [3]; anti-RecA co-immunoprecipitation
  interaction with RecA: HNP-1, but not full length 6x His-tagged preproHNP-1, interacted with RecA
RecA [3]; anti-RecA immunoprecipitation, Western blot with anti-HNP-1
  co-precipitation with RecA over induction time: decreased with time
E. coli
  growth curve of E. coli in medium with purified protein: did not differ from those cultured in regular growth medium without IPTG induction

— publication PMC8754131 (Microbiology Spectrum, 2022)
